# Measured values: patent US20060106102A1, “Napththalene derivatives which inhibit the cytokine or biological activity of microphage migration inhibitory factor (mif)” (priority 2002, published 2006)
# Where two headings read alike, the source gives them in different places.
# Assays:
# [1] = tested on: recombinant human macrophage migration inhibitory factor (MIF)-induced proliferation of S112 human dermal fibroblasts; assay: MIF-induced proliferation of S112 human dermal fibroblasts, 3H-thymidine incorporation; format: cell-based
# Procedure: The activity of each compound was studied in a bioassay utilising MIF-induced proliferation of human dermal fibroblasts. S112 human dermal fibroblasts were propagated in RPMI/10% foetal calf serum (FCS). Prior to experimentation, cells were seeded at 10^5 cells/ml in RPMI/0.1% BSA for 18 hours. At time point zero, culture medium was replaced with RPMI/10% FCS and treatments administered. Cells were treated with recombinant human macrophage migration inhibitory factor (MIF) 50 ng/ml (1.353×10^−9 M) and/or the compound at a 1 or 1000 molar ratio to the concentration of MIF. In some experiments the compound was combined with MIF at time point −30 minutes, prior to adding at time point zero. At time point 30 hours, cells were pulsed with […]. At time point 48 hours, cells were harvested using a semi-automated cell harvester. The radioactivity incorporated into DNA was determined by liquid scintillation counting, with results expressed as [^3H] thymidine incorporation. The proliferation of untreated cells was expressed as 100% and the effect of MIF and each compound expressed in relative %.
# The activity of compound 5 was studied in a bioassay utilising MIF-induced proliferation of human dermal fibroblasts. S112 human dermal fibroblasts were propagated in RPMI/10% foetal calf serum (FCS). Prior to experimentation, cells were seeded at 10^5 cells/ml in RPMII/0.1% BSA for 18 hours. At time point zero, culture medium was replaced with RPMI/10% FCS and treatments administered. Cells were treated with recombinant human macrophage migration inhibitory factor (MIF) 50 ng/ml and/or compound 5 at a 1-1000 molar ratio to the concentration of MIF. At a time point 30 hours later, cells were pulsed with 1 μCi/well of ^3H-thymidine. At a time point 48 hours after commencement of the experiment, cells were harvested using a semi-automated cell harvester. The radioactivity incorporated into DNA was determined by liquid scintillation counting, with results expressed as [^3H] thymidine incorporation.
# [2] = tested on: IL-1-induced COX-2 expression; assay: IL-1-induced COX-2 expression in S112 human dermal fibroblasts (MIF-dependent event), flow cytometry; format: cell-based; conditions: Homo sapiens, Fibroblast, IL-1 0.1 ng/ml, 6 hours, S112 cells, read-out: % inhibition of IL-1-induced COX2 expression (Effect)
# Procedure: The activity of each compound was studied in a bioassay utilising MIF-dependent activation of human dermal fibroblasts. […] IL-1-induced COX-2 expression is therefore a MIF-dependent event. […] Prior to experimentation, cells were seeded at 10^5 cells/ml in RPMI/0.1% BSA for 18 hours. […] Cells permeabilised with 0.1% saponin were sequentially labelled with a mouse anti-human COX-2 monoclonal antibody and with sheep-anti-mouse F(ab)2 fragment labelled with fluoroscein isothiocyanate. Cellular fluorescence was determined using a flow cytometer. At least 5000 events were counted for each reading, each of which was performed in duplicate, and the results expressed in mean fluorescence intensity (MFI) after subtraction of negative control-labelled cell fluorescence. The effect of each compound was determined by subtracting the IL-1+compound-treated cell MFI from the IL-1-treated cell MFI and expressed as % inhibition. In each case the % inhibition of IL-1-induced COX2 expression is shown as the mean, or mean±SEM where results are available from multiple experiments.
# [3] = tested on: rat adjuvant-induced arthritis (AIA) model; assay: rat adjuvant-induced arthritis (AIA) model; format: in vivo, Sprague-Dawley rats; conditions: 1.0 mg/kg once daily intraperitoneal
# Procedure: The activity of each compound was studied in the rat adjuvant-induced arthritis (AIA) model of rheumatoid arthritis. […] Male Sprague-Dawley rats (150±20 g) were used. Adjuvant artritis was induced by intradermal injection at the tail base of […] of a 10 mg/ml suspension of heat-inactivated Mycobacterium tuberculosis (Difco, Detroit, Mich.) in squalane. The compound was administered at a dose of 1.0 mg/kg body weight by once daily intraperitoneal injection on each day (treated). Control animals received an identical volume injection of vehicle (control). Joint inflammation in adjuvant arthritis was assessed clinically as follows: • i) Articular index/score: A score of 0 (no observable erythema or swelling) to 4 (severe swelling and erythema) was given for each paw. All four paws were scored, resulting in a maximum possible score of 16 for each animal (34). • ii) Synovial fluid cell number: Joints were exposed by removal of overlying skin, needle arthrocentesis performed and joint space cells obtained by closed needle lavage with 2 ml saline using a 26 gauge needle and syringe. Lavaged cells from both ankle joints were pooled, washed in saline (300 g for 5 minutes), and counted in a hemocytometer (Improved Nebauer, Weber, UK) (34).
# [4] = tested on: antigen-specific T cell activation (splenic T lymphocytes from mBSA-immunised mice); assay: antigen-specific (mBSA) activation of splenic T lymphocytes in vitro, 3H-thymidine incorporation; format: cell-based, C57BL6/J mice; conditions: for EC50: read-out: EC50 (T cell activation suppressed by 50% compared to vehicle-only-treated cells)
# Procedure: After a further seven (7) days mice were killed and spleens collected aseptically into Hanks buffered saline solution (HBSS). A single cell suspension was prepared in Petri dishes by flushing DMEM through the organ using a 26G needle and 2 mL syringe. The resulting cell suspension was centrifuged for 5-7 minutes and supernatant discarded. Erythrocytes were lysed using a solution containing 0.579% NH4Cl, 0.000037% EDTA, and 0.1% NaHCO3 in a 37° C. water bath. Tubes were then filled with DMEM and centrifuged for 5-7 minutes. […] The specific stimulating antigen, mBSA, was then added at 10-50 μg/mL and plates incubated for 30 hours in a 37° C., 5% CO2 incubator. Tritiated^3H-thymidine was then added at a concentration of 0.5 μCi/well for a further 18 hours. Cells were harvested on a Packard cell harvester, and the harvested material added to 750 μL/tube scintillation fluid. Scintillation counts were read on a Wallac beta-emnission counter. […] Further compounds were also tested for their ability to inhibit antigen-specific T cell activation as a marker of the inhibition of the cytokine or biological activity of MIF using this assay.
# [5] = tested on: murine peritoneal macrophage nitric oxide production; assay: murine peritoneal macrophage nitric oxide production (nitrite, Greiss assay); format: cell-based, C57BL6/J mice; conditions: Mus musculus, LPS 10 ng/ml and interferon-γ 10 units/ml, 24 hours, read-out: % Nitrite concentration inhibition from control
# Procedure: C57BL6/J male mice were injected intraperitoneally with 2ml of thioglycollate. Five (5) days later peritoneal macrophages were collected by ravaging the peritoneum of anaesthetized mice with 3 ml of cold Hanks buffered saline solution. Cells from several mice were pooled, washed and re-suspended in DMEM supplemented with 5% FCS. Cells were plated in 96 well plastic tissue culture plates at 1×10^5 cells/well. Cells were treated with compound or vehicle for 1 hour in a 5% CO2 incubator at 37° C. Cells were then treated with LPS (10 ng/ml) and recombinant human interferon-γ (10 units/ml) and incubated for 24 hours. After 24 hours, 50 μl of supernatant from each well was carefully removed and transferred to ELISA plates. The concentration of nitrite in culture supernatants was measured by the Greiss assay (41). The results were defined as the percentage inhibition of nitrite concentration in compound-treated cell culture supernatants compared to that of vehicle-treated cells.
# [6] = tested on: murine endotoxic shock model (LPS); assay: murine endotoxic shock model, serum cytokines by ELISA; format: in vivo; conditions: mice
# Procedure: The activity of 6,7-dihydroxynaphthalene-3-sulfonic acid (compound 6) was studied in the murine endotoxic shock model. This model has been previously shown to be dependent on MIF (35). […] Endotoxaemia was induced by intra-peritoneal injection of lipopolysaccharide (LPS) (15 mg/kg) in 400 μl saline. Mice were treated with a saline solution (control) only, a saline solution and LPS, or LPS and 6,7-dihydroxynaphthalene-2-sulfonic acid (compound 6) at a dose of 15 mg/kg body weight by intra-peritoneal injection at 24 hours, 12 hours and 1 hour before intra-peritoneal LPS injection. After 1.5 or 6 hours mice were humanely killed by CO2 inhalation then neck dislocation. Serum was obtained from blood obtained by cardiac puncture prior to death and measured for cytokines including interleukin 1 (IL-1) and interleukin 6 (IL-6) by ELISA. The production of IL-1 and IL-6 has been previously shown to be dependent on MIF (36).
# The effect of compounds was further tested under a variety of conditions in animals exposed to endotoxic shock induced as above by the injection of 15 mg/kg LPS by intraperitoneal injection. In each case, compounds were administered by intraperitoneal injection at a dose of 15 mg/kg. Compound administration was associated with reductions in serum cytokine concentration under a variety of administration regimens.
# [7] = tested on: murine antigen-induced arthritis; assay: murine antigen-induced arthritis, histological score; format: in vivo, C57BL6/J mice; conditions: 15 mg/kg i.p. once per 24 hours; histology at day 28; mice
# Procedure: Antigen-induced arthritis was induced in mice. C57BL6/J male mice, aged 7-10 weeks old, were immunized on day 0 with 200 μg methylated BSA (mBSA) emulsified in 200 μl of Freund's complete adjuvant (FCA) injected subcutaneously into the flank skin. Mice were treated with compound 5, administered by intraperitoneal injection, once per 24 hours at a dose of 15 mg/kg body weight. After seven days, mice received 100 μg “mBSA and 100 μl FCA by intradermal injection at the base of the tail. After a further 14 days, arthritis was induced by intra-articular injection of 30 μg mBSA in 10 μl of sterile saline into the left knee, the right knee being injected with sterile saline alone.
# Arthritis was analysed histologically at day 28 after first immunisation. Knee joints were dissected and fixed in 10% buffered formalin for 7 days. Fixed tissues were decalcified for 3 weeks in 15% ethylene-diamine-tetra-acetic acid (EDTA), dehydrated and embedded in paraffin. Sagittal sections (5 μm) of the knee joint were stained with Safranin-O and counterstained with fast green /iron hematoxylin. Histological sections were scored from 0 to 3 for four parameters: Synovitis was defined as hyper-cellularity of the synovium including pannus formation. Joint space exudate was identified as leukocytes, discretely or in aggregates, in the joint space. […]
# [8] = Mus musculus, T-cell, mBSA 10 μg/ml
# [9] = Mus musculus, T-cell, mBSA 50 μg/ml
smiles,measurement,setting,value
"Oc1cc2ccccc2cc1O [Compound 1, 6,7-dihydroxynaphthalene]",inhibition at 0.13 µM,"[1]; Homo sapiens, Fibroblast, concentration 0.13 μM, rhMIF 50 ng/ml, S112 cells, read-out: % inhibition of proliferation compared to vehicle plus rhMIF-treated cells",47%
"COc1cc2ccccc2cc1OC [Compound 2, 6,7-dimethoxynaphthalene]",inhibition at 0.1 µM,[2]; compound 0.1 uM,11.6%
same,"arthritis severity (articular index, synovial fluid cell number; FIGS. 5 and 6)",[3],significant inhibition of arthritis severity
same,EC50,[4]; [8],18.1 µM
same,EC50,[4]; [9],52 µM
same,inhibition at 25 µM,[5]; 25 uM,5.8%
same,inhibition at 50 µM,[5]; 50 uM,8.5%
same,inhibition at 100 µM,[5]; 100 uM,13.6%
"O=C(O)c1ccc2c(S(=O)(=O)O)c(O)ccc2c1 [Compound 5, 2-carboxy-6-hydroxynaphthalene-5-sulfonic acid]",effect on MIF-induced proliferation of human dermal fibroblasts (FIGS. 1 and 2),[1]; 1M ratio equivalent to MIF 50 ng/ml,inhibition of MIF-induced proliferation
same,EC50,[4]; [8],2.39 µM
same,EC50,[4]; [9],> 100 µM
"COc1ccc2cc([C@H](C)C(=O)O)ccc2c1 [Compound 8, S-(+)-6-methoxy-α-methyl-2-naphthalene acetic acid]",% inhibition of proliferation compared to vehicle plus rhMIF-treated cells,"[1]; concentration 0.013 μM, rhMIF 50 ng/ml, S112 cells",4%
same,% inhibition of proliferation compared to vehicle plus rhMIF-treated cells,"[1]; concentration 0.13 μM, rhMIF 50 ng/ml, S112 cells",36%
same,EC50,[4]; mBSA 10 μg/ml,57.7 µM
same,EC50,[4]; mBSA 50 μg/ml,> 100 µM
"O=C(O)c1ccc2c([N+](=O)[O-])c(O)ccc2c1 [Compound 23, 6-hydroxy-5-nitro-2-napthoic acid]",inhibition at 10 µM,[2]; compound 10 uM,8%
same,"serum IL-1, LPS plus compound",[6]; compound 15 mg/kg i.p. at −16 h before LPS 15 mg/kg i.p.,58 ± 13 ng/mL
same,EC50,[4]; [8],> 100 µM
same,EC50,[4]; [9],> 100 µM
same,effect on antigen-specific T cell activation (FIG. 10),"[4]; increasing concentrations, mBSA 50 μg/mL",dose-dependent and statistically significant inhibitory effect
same,"individual parameters of arthritis (synovitis, joint space exudate, cartilage degradation, bone damage; FIG. 11b)",[7],Clinically significant reductions in the severity of all individual parameters of arthritis
same,total arthritis score (FIG. 11a),[7],clinically significant reduction in total arthritis score
"O=S(=O)(O)c1ccc2cc(O)ccc2c1 [Compound 24, 6-Hydroxy-2-naphthalene-sulfonic acid]",inhibition at 1 µM,[2]; compound 1 uM,8.2%
same,inhibition at 0.013 µM,"[1]; Homo sapiens, Fibroblast, concentration 0.013 μM, rhMIF 50 ng/ml, S112 cells, read-out: % inhibition of proliferation compared to vehicle plus rhMIF-treated cells",18%
same,"Serum IL-6, LPS plus compound","[6]; compound 15 mg/kg i.p. at −24 h, −1 h before LPS 15 mg/kg i.p.",144 ± 18 ng/mL
"COC(=O)c1ccc2cc(OC)cc(C)c2c1 [Compound 65, Methyl 6-methoxy-8-methyl-2-napthoate ester]",inhibition at 50 µM,[2]; compound 50 uM,50.4%
same,EC50,[4]; [9],18 µM
